The text below walks through data of patent US9096624B2 (OSI Pharmaceuticals, LLC, priority 2009, dated 2015).

Each structure is given as a SMILES string.

Experiment [1] deals with T1, FAK (Homo sapiens, UniProt Q05397). Kind of experiment: biochemical.
For experiment [2], the target named is T1, FAK. Kind of experiment: Cell-based capture ELISA for inhibition of FAK autophosphorylation [pY397] in MiaPaCa2 cells. The procedure:
Cell-Based Assays for Inhibition of FAK Autophosphorylation: MiaPaCa2 and U87MG
ELISA kit from Invitrogen (KHO0441).
Reagents Provided in Biosource FAK [pY397]
The cells were then suspended in cell assay medium.
On the technique in general: In an ELISA, binding on a coated surface is turned into a signal by an enzyme label.

Experiment [3] concerns the target T1, FAK. Kind of experiment: Cell-based capture ELISA for inhibition of FAK autophosphorylation [pY397] in U87MG cells.
The mark [4] stands for this setting: MIA-PaCa2 cells, + 50% mouse plasma (Table 3), read-out: Mean FAK Cell Mechanistic IC50 + 50% mP MIA-PaCa2.
Setting [5] is: Mean FAK Cell Mechanistic IC50 + 50% mP U87MG, + 50% mouse plasma.

T1 sequence (Q05397 whole entry): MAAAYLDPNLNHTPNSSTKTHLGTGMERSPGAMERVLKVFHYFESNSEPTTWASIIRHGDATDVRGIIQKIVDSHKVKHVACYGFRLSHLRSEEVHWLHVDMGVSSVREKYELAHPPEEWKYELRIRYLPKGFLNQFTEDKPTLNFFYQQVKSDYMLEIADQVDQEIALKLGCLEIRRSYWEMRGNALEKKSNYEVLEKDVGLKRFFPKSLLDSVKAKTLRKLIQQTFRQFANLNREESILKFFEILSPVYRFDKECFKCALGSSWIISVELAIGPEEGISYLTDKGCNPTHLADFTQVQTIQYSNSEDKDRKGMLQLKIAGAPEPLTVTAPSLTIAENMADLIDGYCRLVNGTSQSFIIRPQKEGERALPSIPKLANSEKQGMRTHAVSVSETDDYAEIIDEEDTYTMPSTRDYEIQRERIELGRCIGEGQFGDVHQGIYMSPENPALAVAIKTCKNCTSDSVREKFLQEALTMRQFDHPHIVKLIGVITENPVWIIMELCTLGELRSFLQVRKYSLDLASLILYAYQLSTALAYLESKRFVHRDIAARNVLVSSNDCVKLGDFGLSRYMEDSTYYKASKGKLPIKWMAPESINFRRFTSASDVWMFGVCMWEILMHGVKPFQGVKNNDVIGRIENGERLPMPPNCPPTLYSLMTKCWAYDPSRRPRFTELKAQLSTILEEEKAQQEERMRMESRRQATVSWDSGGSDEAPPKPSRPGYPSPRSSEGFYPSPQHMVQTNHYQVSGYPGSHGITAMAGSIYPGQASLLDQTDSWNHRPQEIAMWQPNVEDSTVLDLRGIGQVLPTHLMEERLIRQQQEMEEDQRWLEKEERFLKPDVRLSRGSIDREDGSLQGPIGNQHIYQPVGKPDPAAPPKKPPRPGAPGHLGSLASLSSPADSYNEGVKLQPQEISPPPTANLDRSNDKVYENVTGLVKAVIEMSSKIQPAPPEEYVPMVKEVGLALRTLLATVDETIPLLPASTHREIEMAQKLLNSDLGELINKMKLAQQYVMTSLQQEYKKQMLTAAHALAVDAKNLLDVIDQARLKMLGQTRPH

Regarding `CCOP(=O)(Cc1ccc(Nc2ncc(C(F)(F)F)c(Nc3ccccc3C(=O)NC)n2)c(OC)c1)OCC` [Ex. 53, diethyl (3-methoxy-4-{[4-{[2-(methylcarbamoyl)phenyl]amino}-5-(trifluoromethyl)pyrimidin-2-yl]amino}benzyl)phosphonate], the IC50 (in general, the midpoint of a concentration-inhibition curve) against FAK [1] was less than 1 µM; on FAK [2] (MIA-PaCa2 cells on fibronectin, 2 h, no plasma, read-out: Mean FAK Cell Mechanistic IC50 MIA-PaCa2), less than 1 µM; on FAK [2] (MIA-PaCa2 cells, + 50% human plasma, read-out: Mean FAK Cell Mechanistic IC50 + 50% hP MIA-PaCa2), less than 1 µM; on FAK [3] (U87MG FAK Cell Mech IC50 +hP, + human plasma), 0.16 µM; at FAK [3] (U87MG FAK Cell Mech IC50 +mP, + mouse plasma) it was 0.07 µM.

`CCOP(=O)(Cc1ccc(Nc2ncc(C(F)(F)F)c(Nc3ccc([C@H]4CC[C@H](O)CC4)cc3C(=O)NC)n2)cc1)OCC` [Example 139, Diethyl (4-{[4-{[4-(trans-4-hydroxycyclohexyl)-2-(methylcarbamoyl)phenyl]amino}-5-(trifluoromethyl)pyrimidin-2-yl]amino}benzyl)phosphonate]: the IC50 is less than 1 µM on FAK [1], less than 1 µM on FAK [2] (setting [4]) and 1 to 10 µM at FAK [3] (setting [5]).

Turning to `CCOP(=O)(Cc1ccc(Nc2ncc(C(F)(F)F)c(Nc3ccc([C@H]4CC[C@H](O)CC4)cc3C(=O)NC)n2)c(OC)c1)OCC` [Example 141, Diethyl (4-{[4-{[4-(trans-4-hydroxycyclohexyl)-2-(methylcarbamoyl)phenyl]amino}-5-(trifluoromethyl)pyrimidin-2-yl]amino}-3-methoxybenzyl)phosphonate], the 50% inhibitory concentration (IC50) on FAK [1], on FAK [2] (setting [4]) and on FAK [3] (setting [5]) was less than 1 µM throughout.

Turning to `CCOP(=O)(Cc1ccc(Nc2ncc(C(F)(F)F)c(Nc3ccccc3C(=O)NC)n2)c(OC)c1F)OCC` [Example 147, Diethyl (2-fluoro-3-methoxy-4-{[4-{[2-(methylcarbamoyl)phenyl]amino}-5-(trifluoromethyl)pyrimidin-2-yl]amino}benzyl)phosphonate], the IC50 against FAK [1], on FAK [2] (setting [4]) and on FAK [3] (setting [5]) was less than 1 µM in each case.

Take `CCOP(=O)(Cc1ccc(Nc2ncc(C(F)(F)F)c(Nc3ccc(-c4cnn(CCCO)c4)c4c3C(=O)N(C)C4)n2)cc1)OCC` [Example 156, Diethyl (4-{[4-({7-[1-(3-hydroxypropyl)-1H-pyrazol-4-yl]-2-methyl-3-oxo-2,3-dihydro-1H-isoindol-4-yl}amino)-5-(trifluoromethyl)pyrimidin-2-yl]amino}benzyl)phosphonate]: the IC50 on FAK [1], at FAK [2] (setting [4]) and at FAK [3] (setting [5]) was less than 1 µM throughout.

On to `CCOP(=O)(Cc1ccc(Nc2ncc(C(F)(F)F)c(Nc3cccc4c3C(=O)N(C)C4C)n2)c(OC)c1)OCC` (centres unmarked) [Example 158, Diethyl [4-({4-[(1,2-dimethyl-3-oxo-2,3-dihydro-1H-isoindol-4-yl)amino]-5-(trifluoromethyl)pyrimidin-2-yl}amino)-3-methoxybenzyl]phosphonate], for which the IC50 against FAK [1], on FAK [2] (setting [4]) and on FAK [3] (setting [5]) was less than 1 µM in each case.

As to `CCCP(=O)(CCC)c1cccc(Nc2ncc(C(F)(F)F)c(Nc3ccc([C@H]4CC[C@H](O)CC4)c4c3C(=O)N(C)C4)n2)c1` [Example 171, 7-{[2-{[3-(Dipropylphosphoryl)phenyl]amino}-5-(trifluoromethyl)pyrimidin-4-yl]amino}-4-(trans-4-hydroxycyclohexyl)-2-methyl-2,3-dihydro-1H-isoindol-1-one], the IC50 against FAK [1], at FAK [2] (setting [4]) and at FAK [3] (setting [5]) was less than 1 µM in each case.

As to `CCOP(=O)(Cc1ccc(Nc2ncc(C(F)(F)F)c(Nc3cccc4[nH]cc(C)c(=O)c34)n2)c(OC)c1)OCC` [Example 204, Diethyl [3-methoxy-4-({4-[(3-methyl-4-oxo-1,4-dihydroquinolin-5-yl)amino]-5-(trifluoromethyl)pyrimidin-2-yl}amino)benzyl]phosphonate], the IC50 against FAK [1], on FAK [2] (setting [4]) and on FAK [3] (setting [5]) was less than 1 µM in each case.

For the compound `CNC(=O)c1ccccc1Nc1nc(Nc2ccc(CP(C)(=O)OCCOC)cc2OC)ncc1C(F)(F)F` (centres unmarked) [Example 216, 2-Methoxyethyl (3-methoxy-4-{[4-{[2-(methylcarbamoyl)phenyl]amino}-5-(trifluoromethyl)pyrimidin-2-yl]amino}benzyl)methylphosphinate], the IC50 on FAK [1], at FAK [2] (setting [4]) and at FAK [3] (setting [5]) was less than 1 µM in each case.

Turning to `CCOP(=O)(Cc1ccc(Nc2ncc(C(F)(F)F)c(Nc3cccnc3C(=O)NC)n2)c(OC)c1)OCC` [Example 231, Diethyl (3-methoxy-4-{[4-{[2-(methylcarbamoyl)pyridin-3-yl]amino}-5-(trifluoromethyl)pyrimidin-2-yl]amino}benzyl)phosphonate], the IC50 on FAK [1], on FAK [2] (setting [4]) and on FAK [3] (setting [5]) was less than 1 µM in each case.

Turning to `CCOP(=O)(Cc1ccc(Nc2ncc(C(F)(F)F)c(Nc3ccc(C4CCC(N(C)CC)CC4)c4c3C(=O)N(C)C4)n2)c(OC)c1)OCC` (centres unmarked) [Example 236, Diethyl [4-({4-[(7-{4-[ethyl(methyl)amino]cyclohexyl}-2-methyl-3-oxo-2,3-dihydro-1H-isoindol-4-yl)amino]-5-(trifluoromethyl)pyrimidin-2-yl}amino)-3-methoxybenzyl]phosphonate], the half-maximal inhibitory concentration (IC50) against FAK [1], on FAK [2] (setting [4]) and on FAK [3] (setting [5]) was less than 1 µM in each case.

Take `CCOP(=O)(Cc1ccc(Nc2ncc(C(F)(F)F)c(Nc3ccc([C@H]4CC[C@H](O)CC4)c4c3C(=O)N(C)C4)n2)cn1)OCC` [Example 260, Diethyl [(5-{[4-{[7-(trans-4-hydroxycyclohexyl)-2-methyl-3-oxo-2,3-dihydro-1H-isoindol-4-yl]amino}-5-(trifluoromethyl)pyrimidin-2-yl]amino}pyridin-2-yl)methyl]phosphonate]: the IC50 at FAK [1], at FAK [2] (setting [4]) and at FAK [3] (setting [5]) was less than 1 µM in each case.

In the case of `CCOP(=O)(Cc1cnc(Nc2ncc(C(F)(F)F)c(Nc3ccc([C@H]4CC[C@H](O)CC4)c4c3C(=O)N(C)C4)n2)c(OC)c1)OCC` [Example 308, Diethyl [(6-{[4-{[7-(trans-4-hydroxycyclohexyl)-2-methyl-3-oxo-2,3-dihydro-1H-isoindol-4-yl]amino}-5-(trifluoromethyl)pyrimidin-2-yl]amino}-5-methoxypyridin-3-yl)methyl]phosphonate], the IC50 is less than 1 µM against FAK [1] and 1 to 10 µM at FAK [3] (setting [5]).

Turning to `CCOP(=O)(Cc1ccc(Nc2ncc(C(F)(F)F)c(Nc3ccc([C@H]4CC[C@H](O)CC4)c4c3C(=O)N(C)C4)n2)nc1)OCC` [Example 309, Diethyl [(6-{[4-{[7-(trans-4-hydroxycyclohexyl)-2-methyl-3-oxo-2,3-dihydro-1H-isoindol-4-yl]amino}-5-(trifluoromethyl)pyrimidin-2-yl]amino}pyridin-3-yl)methyl]phosphonate], the IC50 against FAK [1], at FAK [2] (setting [4]) and at FAK [3] (setting [5]) was less than 1 µM in each case.

As to `CCOP(=O)(Cc1ccc(Nc2ncc(C(F)(F)F)c(Nc3c4c(cc[n+]3[O-])CN(C)C4=O)n2)c(OC)c1)OCC` [Example 310], the values for the IC50 at FAK [1] and at FAK [3] (setting [5]) were less than 1 µM and 1 to 10 µM, respectively.

As for `CCOP(=O)(Cc1ccc(Nc2ncc(C(F)(F)F)c(Nc3nccc4c3C(=O)N(C)C4)n2)c(OC)c1)OCC` [Example 311], the IC50 is less than 1 µM against FAK [1] and 1 to 10 µM at FAK [3] (setting [5]).
